Where two headings read alike, the source gives them in different places.
Assays:
[1] = tested on: SK-OV-3; assay: Cell viability assay (CellTiter Glo), ovarian cancer cell line SK-OV-3; type: cell-based; conditions: Homo sapiens, 96 hours
Experimental: (§1) Cell viability assay was performed to assess the potency of the compounds in human cancer cell lines KP4 (pancreatic ductal adenocarcinoma), MiaPaCa-2 (pancreatic carcinoma), AsPC-1 (pancreatic adenocarcinoma, ascites), 143B (osteosarcoma), and SJSA-1 (osteosarcoma). Selected compounds were also assayed in a human breast epithelial cell line MCF-10A, a nontumorigenic cell line as a control to assess differential activity. Cells at a density of 500-5,000 cells/well were seeded in 96-well plates and incubated at 37° C. overnight. A series of 9 different concentrations of compound stocks (500×) were created by 3-fold serial dilution in DMSO. These compounds were further diluted in culture media and then added to cells so that the final DMSO concentration was equal to 0.25% or less. After 96 hours of incubation, 50 μL of CellTiter Glo reagent (Promega) was added to each well and luminescence was measured after 10 minutes using EnVision (PerkinElmer). Compounds titrated from top concentration of up to 30 μM. The select compounds were tested initially from 30 μM as the top concentration in duplicates (range of 4.6 nM-30 μM). […] Luminescence from cells treated with DMSO alone was set as Max and % of inhibition was calculated as follows: Inhibition %=(Max-Sample value)/Max*100. Data was analyzed using XL-fit software (ID Business Solutions Ltd.). IC50, relative IC50, or % of top inhibition was calculated.
(§2) A group of selected analogs were further profiled in cell viability assays described above in multiple additional cancer cell lines, including lung cancer, melanoma, hepatocarcinoma, pancreatic cancer, leukemia, lymphoma, ovarian cancer, breast cancer, colon cancer, and sarcoma cell lines. Initial cell seeding numbers were adjusted for each cell line. Typically, 500-5000 cells/well for adherent cells and 5000-10000/well for suspension cells were seeded in 96-well plates.

[2] = tested on: HT-1080 luc2; assay: Cell viability assay (CellTiter Glo), fibrosarcoma HT-1080 luc2; type: cell-based; conditions: Homo sapiens, fibrosarcoma expressing a luciferase gene, 96 hours, CellTiter Glo, read-out: IC50 HT-1080 luc2
Experimental: as §1, §2
(§3) The results of the assay in sarcoma cell lines are given in Table 21a for HT-1080 luc2 (fibrosarcoma expressing a luciferase gene), Table 21b for 143B (osteosarcoma), and Table 21c for SJSA-1 (osteosarcoma).

[3] = tested on: HT29; assay: Cell viability assay (CellTiter Glo), colon cancer cell line HT29; type: cell-based; conditions: Homo sapiens, HT-29, 96 hours
Experimental: as §1, §2

[4] = tested on: MDA-MB-435S; assay: Cell viability assay (CellTiter Glo), melanoma cell line MDA-MB-435S; type: cell-based; conditions: Homo sapiens, 96 hours
Experimental: as §1, §2

[5] = tested on: HCC1954; assay: Cell viability assay (CellTiter Glo), breast cancer cell line HCC1954; type: cell-based; conditions: Homo sapiens, 96 hours
Experimental: as §1, §2

[6] = tested on: PANC1; assay: Cell viability assay (CellTiter Glo), pancreatic cell line PANC1; type: cell-based; conditions: Homo sapiens, PANC-1, 96 hours
Experimental: as §1, §2
(§4) The results of the assay in the pancreatic cell lines are given in Table 15a for PANC1, Table 15b for MiaPaCa-2, and Table 15c for AsPC-1.

[7] = tested on: H1299; assay: Cell viability assay (CellTiter Glo), lung cancer cell line H1299; type: cell-based; conditions: Homo sapiens, NCI-H1299, 96 hours
Experimental: as §1, §2

[8] = tested on: H2228; assay: Cell viability assay (CellTiter Glo), lung cancer cell line H2228; type: cell-based; conditions: Homo sapiens, NCI-H2228
Experimental: as §1, §2

[9] = tested on: SW480; assay: Cell viability assay (CellTiter Glo), colon cancer cell line SW480; type: cell-based; conditions: Homo sapiens, 96 hours
Experimental: as §1, §2

[10] = tested on: MCF-10A; assay: Cell viability assay (CellTiter Glo), non-tumorigenic breast epithelial cell line MCF-10A; type: cell-based; conditions: Homo sapiens, 96 hours
Method in brief: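 Non-tumorigenic breast epithelial MCF-10A line, exposed for 96 hours to compound (top concentration up to 30 μM, 3-fold steps, duplicates, final DMSO 0.25% or less). ATP luminescence (CellTiter Glo) normalised to DMSO controls yields IC50, relative IC50 or % top inhibition; paclitaxel served as cytotoxic control.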

[11] = tested on: MV-4-1; assay: Cell viability assay (CellTiter Glo), leukemia cell line MV-4-1; type: cell-based; conditions: 96 hours
Experimental: as §1, §2
(§5) The results of the assay in the leukemia cell lines are given in Table 16a for MV-4-1 and Table 16b for HL-60 and Kasumi-1.

[12] = tested on: REC-1; assay: Cell viability assay (CellTiter Glo), lymphoma cell line REC-1; type: cell-based; conditions: Homo sapiens, Rec1, 96 hours
Experimental: as §1, §2

[13] = tested on: Raji; assay: Cell viability assay (CellTiter Glo), lymphoma cell line Raji; type: cell-based; conditions: Homo sapiens, 96 hours
Experimental: as §1, §2

[14] = tested on: Huh7; assay: Cell viability assay (CellTiter Glo), hepatocellular carcinoma Huh7; type: cell-based; conditions: Homo sapiens, Huh-7, 96 hours
Experimental: as §1, §2

[15] = tested on: MiaPaCa-2; assay: Cell viability assay (CellTiter Glo), pancreatic carcinoma MiaPaCa-2; type: cell-based; conditions: Homo sapiens
Method in brief: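 MiaPaCa-2 and AsPC-1 cells were seeded overnight at 37 °C and exposed for 96 h to 9-point, 3-fold dilutions from up to 30 μM (final DMSO ≤0.25%). CellTiter Glo luminescence was read, and inhibition was calculated relative to DMSO-only cells. IC50, relative IC50 or % top inhibition was derived.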

[16] = tested on: 143B; assay: Cell viability assay (CellTiter Glo), osteosarcoma 143B; type: cell-based; conditions: Homo sapiens
Experimental: as §1, §3

[17] = mouse, in vivo, ip, 15 mg/kg
Experimental: (§8) Test compounds were dissolved either in 20% (w/w) sulfobutylether-β-cyclodextrin (SBECD) pH 3-7 aqueous solution, or 5% DMSO/(30-50%) PEG400/(65-45%) water. Test compound dosing solutions were administered intraperitoneally to Balb/c nude male mice. Blood samples were collected at various time points with EDTA-K2 as anti-coagulant on ice, and centrifuged to obtain plasma samples. The plasma samples were stored at −20° C. until analysis.
(§9) Into 10 μL of test compound plasma samples were added 2 μL DMSO then 200 μL of 5 ng/mL internal standard (VTSD) (Terfenadine) in MeOH/acetonitrile. The mixture was vortexed for 1 minute and centrifuged at 4000 rpm for 15 minutes. Calibration standards were prepared by spiking known amount of test compounds into blank plasma samples. The supernatant solution was diluted 5 times with Acetonitrile/H2O (with 0.1% formic acid, 1:1, v/v), and this is the solution for LC-MS/MS analysis. The limit of quantification (LOQ) was 1 ng/mL.
(§10) Typical HPLC mobile phases were mobile phase of 5 mM NH4OAc (with 0.05% formic acid); and mobile phase B of acetonitrile (with 0.1% formic acid). The HPLC column was Kinetex C18 (30 mm×3.00 mm). Mass spectrometer was tuned for each compound in the Multiple Reaction Monitoring (MRM) scanning mode and in the electrospray ionization mode. The lower limit of quantification was 1-10 ng.
(§11) In this study, K601 (RSL3) was formulated in 5% DMSO/30% PEG 400/65% water at 1.5 mg/mL. The volume of injection via intraperitoneal route was 10 mL/kg for a dose of 15 mg/kg. […] The limit of quantification (LOQ) was 1 ng/mL.
(§12) In this study, the compound was formulated in 20% (w/w) sulfobutylether-β-cyclodextrin (SBECD), pH 5 aqueous solution at 1.5 mg/mL. The volume of injection via intraperitoneal route was 10 mL/kg for a dose of 15 mg/kg. The concentration of test compounds in plasma were analyzed by LC-MS with the method described above. The limit of quantification was 1 ng/mL.
(§13) It was formulated in 5% DMSO/50% PEG400/45% Water pH adjusted to 4 with HCl as an aqueous solution at 1.0 mg/mL. The volume of injection via intraperitoneal route was 15 mL/kg for a dose of 15 mg/kg. The concentration of test compounds in plasma were analyzed by LC-MS with the method described above. The limit of quantification was 1 ng/mL. […] The limit of quantification was 1 ng/mL.
(§14) Compounds 24 and 28 were formulated in 20% (w/w) sulfobutylether-β-cyclodextrin (SBECD) with pH 3 and pH 4, respectively, as an aqueous solution at 1.0 mg/mL. Compound 67 was in 5% DMSO/50% PEG 400/45% water pH 4 (adjusted with 12 N HCl) aqueous solution at 1.0 mg/mL. The injection volume via intraperitoneal route was 10 mL/kg for a dose of 15 mg/kg. The concentration of test compounds in plasma were analyzed by LC-MS with the method described above. The limit of quantification was 1 ng/mL.

[18] = in vivo; conditions: male, Balb/c nude, mouse, ip, 15 mg/kg
Experimental: as §8, §9, §10, §11, §12, §13, §14

[19] = tested on: SJSA-1; assay: Cell viability assay (CellTiter Glo), osteosarcoma SJSA-1; type: cell-based; conditions: Homo sapiens, 96 hours
Experimental: as §1, §3

[20] = tested on: BxPC-3; assay: Cell proliferation assay, pancreatic cancer cell line BxPC-3; type: cell-based; conditions: Homo sapiens
Experimental: (§6) Cell viability assay was performed to assess the potency of the compounds in human cancer cell lines 786-O (renal cell carcinoma) and SJSA-1 (osteosarcoma). Additional cell lines, such as those described above in Example 4 as well as various others, e.g., pancreatic cancer cell lines (Panc 02.13, BxPC-3, Panc 12, Panc 02.03, Panc 6.03, PSN-1, HPAC, and Capan-1) and prostate cancer cell lines (PC-3, DU145, 22Rv1, NCI-H660, BPH1, LNCaP, BM-1604, and MDA PCa 2b), were tested for select compounds as shown in Table 25.
(§7) The cell proliferation assays for the compounds shown Table 25 was performed according to the protocols described herein, including Examples 4 and 6.

[21] = tested on: PSN-1; assay: Cell proliferation assay, pancreatic cancer cell line PSN-1; type: cell-based; conditions: Homo sapiens, PSN1
Experimental: as §6, §7

[22] = tested on: KP4; assay: Cell viability assay (CellTiter Glo), pancreatic ductal adenocarcinoma KP4; type: cell-based, human; conditions: Homo sapiens, KP-4, Cell Line KP4; read-out: IC50
Method in brief: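 Luminescent ATP readout (CellTiter Glo) after 96 h compound exposure, normalized to DMSO-treated cells as maximum. Compounds ran in duplicate, nine 3-fold steps from 30 μM down to 4.6 nM, final DMSO ≤0.25%; KP4 plated overnight at 1,000–10,000 cells/well. Outputs: IC50, relative IC50 or % top inhibition.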

[23] = tested on: Capan-1; assay: Cell proliferation assay, pancreatic cancer cell line Capan-1; type: cell-based; conditions: Homo sapiens
Experimental: as §6, §7

[24] = tested on: AsPC-1; assay: Cell viability assay (CellTiter Glo), pancreatic adenocarcinoma AsPC-1; type: cell-based; conditions: Homo sapiens, ASPC1
Experimental: as §1, §4

[25] = tested on: Panc 6.03; assay: Cell proliferation assay, pancreatic cancer cell line Panc 6.03; type: cell-based
Experimental: as §6, §7

[26] = tested on: HPAC; assay: Cell proliferation assay, pancreatic cancer cell line HPAC; type: cell-based; conditions: Homo sapiens
Experimental: as §6, §7

[27] = tested on: Panc 02.13; assay: Cell proliferation assay, pancreatic cancer cell line Panc 02.13; type: cell-based
Experimental: as §6, §7

[28] = tested on: Panc 12; assay: Cell proliferation assay, pancreatic cancer cell line Panc 12; type: cell-based; conditions: Cell Line Panc 12
Experimental: as §6, §7

[29] = tested on: Panc 02.03; assay: Cell proliferation assay, pancreatic cancer cell line Panc 02.03; type: cell-based; conditions: Homo sapiens
Experimental: as §6, §7

[30] = tested on: HL-60; assay: Cell viability assay (CellTiter Glo), leukemia cell line HL-60; type: cell-based; conditions: Homo sapiens, 96 hours
Experimental: as §1, §2, §5

[31] = tested on: Kasumi-1; assay: Cell viability assay (CellTiter Glo), leukemia cell line Kasumi-1; type: cell-based; conditions: Homo sapiens, 96 hours
Experimental: as §1, §2, §5

[32] = lung cancer cell line, 96 hours, CellTiter Glo, read-out: IC50 H2228
[33] = MIA PaCa-2, pancreatic carcinoma, 96 hours, CellTiter Glo, read-out: IC50 MiaPaCa-2

Structure (SMILES)	IC50 [1]	IC50 [2]	IC50 [3]	IC50 [4]	IC50 [5]	IC50 [6]	IC50 [7]	IC50 [8, 32]	IC50 [9]	IC50 [10]	IC50 [11]	IC50 [12]	IC50 [13]	IC50 [14]	IC50 [15, 33]	IC50 [19]	IC50 [30]	IC50 [31]	other results
COC(=O)c1ccc([C@@H]2c3[nH]c4ccc(F)cc4c3C[C@H](C(=O)OC)N2C(=O)CCl)cc1 [Example 92]	47 nM	12 nM	228 nM	17 nM	96 nM	78 nM	13 nM	50 nM	533 nM	1140 nM	129 nM	70 nM	28 nM	73 nM					
COC(=O)[C@H]1Cc2c([nH]c3ccccc23)[C@H](c2ccc(C(=O)OC(C)(C)C)cc2)N1C(=O)CCl [Example 1]										850 nM					5 nM	18 nM			IC50 ([16]; 96 h, osteosarcoma, 96 hours, CellTiter Glo, read-out: IC50 143B): 9 nM; AUC Extr ([17]; male, Balb/c nude): 7.26%; exposure (Cmax, AUC) compared with K601 (RSL3) [17]: higher exposure; AUC [18]: 123 ng·h/mL; AUC(0-inf) [18]: 132 ng·h/mL; AUC(0-t) [18]: 123 ng·h/mL; Cmax [18]: 126 ng/mL; MRT inf [18]: 1.4 h; Tmax [18]: 0.5 h; half-life [18]: 1.12 h; concentration at 0.5 h ([18]; Calculated Concentration): 146 ng/mL; concentration at 1 h ([18]; Calculated Concentration): 56.1 ng/mL; concentration at 4 h ([18]; Calculated Concentration): 5.56 ng/mL; concentration at 0.5 h ([18]; Calculated Concentration, Mean): 126 ng/mL; concentration at 1 h ([18]; Calculated Concentration, Mean): 42.6 ng/mL; concentration at 2 h ([18]; Calculated Concentration, Mean): 14.9 ng/mL; concentration at 4 h ([18]; Calculated Concentration, Mean): 5.74 ng/mL
C[C@H]1Cc2c([nH]c3ccccc23)[C@H](c2ccc(N3CCC3)cc2)N1C(=O)CCl [Compound 239]																			IC50 [20]: 910 nM; IC50 [21]: 183 nM; IC50 [22]: 4 nM; IC50 [23]: > 1000 nM; IC50 ([15]; Cell Line Mia PaCa-2, read-out: IC50): 259 nM; IC50 ([24]; Cell Line AsPC-1, read-out: IC50): 65.2 nM; IC50 [25]: 166 nM; IC50 ([16]; Cell Line 143B, read-out: IC50): 1120 nM; IC50 ([8]; Cell Line H2228, read-out: IC50): 14.6 nM; IC50 [26]: 321 nM; IC50 [27]: 1110 nM; IC50 [28]: 57.8 nM; IC50 [29]: 394 nM
COC(=O)[C@H]1Cc2c([nH]c3ccccc23)[C@H](c2ccc(NCC3CC3)cc2)N1C(=O)CCl [Example 83]	230 nM	38 nM	338 nM	47 nM	333 nM	> 1000 nM	41 nM	112 nM	10500 nM	3790 nM	524 nM	516 nM	151 nM	120 nM					
COC(=O)[C@H]1Cc2c([nH]c3ccccc23)[C@H](c2ccc(N[C@]34CC5C[C@H](C[C@H](C5)C3)C4)cc2)N1C(=O)CCl [Example 29]	12 nM	5 nM	49 nM	6 nM	38 nM	27 nM	5 nM	32 nM	2000 nM	410 nM	48 nM	27 nM	9 nM	13 nM	33 nM	14 nM	31 nM	28 nM	IC50 ([24]; pancreatic adenocarcinoma, ascites, 96 hours, CellTiter Glo, read-out: IC50 AsPC-1): 23 nM
C[C@H]1Cc2c([nH]c3ccc(F)cc23)[C@H](c2ccc(N3CCOCC3)cc2)N1C(=O)CCl [Example 114]																115 nM	120 nM	145 nM	
